Laboratory results: patent US20260124214A1, “HETEROCYCLIC COMPOUNDS FOR USE IN THE TREATMENT OF CANCER” (ARTIOS PHARMA LIMITED, priority 2021, published 2026)
Structures can show the parent of a compound that is named as a salt.

The molecules below were run against T1, Human Polθ polymerase domain (aa1820-2590) (Homo sapiens, UniProt O75417) (assay: Polθ Polymerase Domain WT KI Assay (PicoGreen)). Conditions: 100 nM DNA substrate, 0.156 nM Polθ, initial rates vs inhibitor concentration.
T1 construct: Human Polθ polymerase domain (aa1820-2590) was expressed in E. Coli; made in house; host or cells: E. coli
T1 sequence (O75417 1820-2590): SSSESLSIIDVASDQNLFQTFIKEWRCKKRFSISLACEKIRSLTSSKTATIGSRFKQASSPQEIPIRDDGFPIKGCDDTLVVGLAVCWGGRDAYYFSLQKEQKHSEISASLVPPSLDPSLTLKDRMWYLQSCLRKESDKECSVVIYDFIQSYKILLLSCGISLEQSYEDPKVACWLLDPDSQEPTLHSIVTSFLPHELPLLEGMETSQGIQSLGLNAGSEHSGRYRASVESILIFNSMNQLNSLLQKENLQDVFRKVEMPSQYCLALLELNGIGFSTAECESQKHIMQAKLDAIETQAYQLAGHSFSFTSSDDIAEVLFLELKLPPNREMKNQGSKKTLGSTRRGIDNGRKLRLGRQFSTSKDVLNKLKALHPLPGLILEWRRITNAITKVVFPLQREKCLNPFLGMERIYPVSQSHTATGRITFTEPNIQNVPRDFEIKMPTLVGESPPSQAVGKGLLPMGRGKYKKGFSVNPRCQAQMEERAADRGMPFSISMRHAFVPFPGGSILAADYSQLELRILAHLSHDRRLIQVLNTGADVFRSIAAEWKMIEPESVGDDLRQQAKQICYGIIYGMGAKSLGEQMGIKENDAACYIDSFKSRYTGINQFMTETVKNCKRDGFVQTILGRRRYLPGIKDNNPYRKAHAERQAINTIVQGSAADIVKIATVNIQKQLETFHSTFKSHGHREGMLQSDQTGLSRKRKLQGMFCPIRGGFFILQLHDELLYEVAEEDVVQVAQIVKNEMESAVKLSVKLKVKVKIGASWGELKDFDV
Assay type: biochemical
Outline: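 E. coli-expressed human Polθ polymerase domain (aa1820-2590) on annealed DNA II Short/Long primer-template (1.2:1), in 25 mM Tris pH 7.5, NaCl, 5% glycerol, 0.01% Triton X-100, 0.1 mg/ml BSA, 1 mM DTT, 1% DMSO. EDTA-quenched timepoints to 180 min, PicoGreen fluorescence. Initial rates vs inhibitor concentration fitted four-parameter for KI.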

Row | SMILES | Ki
1 | Cc1cc(C(F)(F)F)cc(N2C(=O)C[C@@H]3CN(CCN4C[C@H]5C[C@@H]4CN5)c4c(C)cccc4N(C)C(=O)[C@H]32)n1 [Example 58, (3aR,11aS)-5-(2-((1R,4R)-2,5-Diazabicyclo[2.2.1]heptan-2-yl)ethyl)-6,10-dimethyl-1-(6-methyl-4-(trifluoromethyl)pyridin-2-yl)-1,3a,4,5,10,11a-hexahydro-2H-benzo[b]pyrrolo[2,3-f][1,4]diazocine-2,11(3H)-dione dihydrochloride] | 0.777 nM
2 | Cc1cc(C(F)(F)F)cc(N2C(=O)C[C@@H]3CN(CCN4C[C@@H]5C[C@H]4CN5)c4c(C)cccc4N(C)C(=O)[C@H]32)n1 [Example 59, (3aR,11aS)-5-(2-((1S,4S)-2,5-Diazabicyclo[2.2.1]heptan-2-yl)ethyl)-6,10-dimethyl-1-(6-methyl-4-(trifluoromethyl)pyridin-2-yl)-1,3a,4,5,10,11a-hexahydro-2H-benzo[b]pyrrolo[2,3-f][1,4]diazocine-2,11(3H)-dione dihydrochloride] | 1.13 nM
3 | Cc1cc(C(F)(F)F)cc(N2C(=O)C[C@@H]3CN(CCN4CC5CCC(C4)N5C)c4c(C)cccc4N(C)C(=O)[C@H]32)n1 [Example 60, (3aR,11aS)-6,10-Dimethyl-5-(2-(8-methyl-3,8-diazabicyclo[3.2.1]octan-3-yl)ethyl)-1-(6-methyl-4-(trifluoromethyl)pyridin-2-yl)-1,3a,4,5,10,11a-hexahydro-2H-benzo[b]pyrrolo[2,3-f][1,4]diazocine-2,11(3H)-dione dihydrochloride] | 0.625 nM
4 | Cc1cc(C(F)(F)F)cc(N2C(=O)C[C@@H]3CN(CCN4C[C@H]5C[C@@H]4CN5C)c4c(C)cccc4N(C)C(=O)[C@H]32)n1 [Example 61, (3aR,11aS)-6,10-Dimethyl-5-(2-((1R,4R)-5-methyl-2,5-diazabicyclo[2.2.1]heptan-2-yl)ethyl)-1-(6-methyl-4-(trifluoromethyl)pyridin-2-yl)-1,3a,4,5,10,11a-hexahydro-2H-benzo[b]pyrrolo[2,3-f][1,4]diazocine-2,11(3H)-dione dihydrochloride] | 0.759 nM
5 | Cc1cc(C(F)(F)F)cc(N2C(=O)C[C@@H]3CN(CCN4C[C@@H]5C[C@H]4CN5C)c4c(C)cccc4N(C)C(=O)[C@H]32)n1 [Example 62, (3aR,11aS)-6,10-Dimethyl-5-(2-((1S,4S)-5-methyl-2,5-diazabicyclo[2.2.1]heptan-2-yl)ethyl)-1-(6-methyl-4-(trifluoromethyl)pyridin-2-yl)-1,3a,4,5,10,11a-hexahydro-2H-benzo[b]pyrrolo[2,3-f][1,4]diazocine-2,11(3H)-dione dihydrochloride] | 1.01 nM
6 | Cc1cc(C(F)(F)F)cc(N2C(=O)C[C@@H]3CN(CCN4CCN(C)C[C@H]4CO)c4c(C)cccc4N(C)C(=O)[C@H]32)n1 [Example 64, (3aR,11aS)-5-(2-((S)-2-(Hydroxymethyl)-4-methylpiperazin-1-yl)ethyl)-6,10-dimethyl-1-(6-methyl-4-(trifluoromethyl)pyridin-2-yl)-1,3a,4,5,10,11a-hexahydro-2H-benzo[b]pyrrolo[2,3-f][1,4]diazocine-2,11(3H)-dione dihydrochloride] | 0.816 nM
7 | Cc1cc(C(F)(F)F)cc(N2C(=O)C[C@@H]3CN(CCN4CCN(C)C[C@@H]4CO)c4c(C)cccc4N(C)C(=O)[C@H]32)n1 [Example 65, (3aR,11aS)-5-(2-((R)-2-(Hydroxymethyl)-4-methylpiperazin-1-yl)ethyl)-6,10-dimethyl-1-(6-methyl-4-(trifluoromethyl)pyridin-2-yl)-1,3a,4,5,10,11a-hexahydro-2H-benzo[b]pyrrolo[2,3-f][1,4]diazocine-2,11(3H)-dione dihydrochloride] | 1.38 nM
8 | Cc1cc(C(F)(F)F)cc(N2C(=O)C[C@@H]3CN(CCN4CC[C@H](N(C)C)[C@H](F)C4)c4c(C)cccc4N(C)C(=O)[C@H]32)n1 [Example 66, (3aR,11aS)-5-(2-((3R,4S)-4-(Dimethylamino)-3-fluoropiperidin-1-yl)ethyl)-6,10-dimethyl-1-(6-methyl-4-(trifluoromethyl)pyridin-2-yl)-1,3a,4,5,10,11a-hexahydro-2H-benzo[b]pyrrolo[2,3-f][1,4]diazocine-2,11(3H)-dione dihydrochloride] | 0.936 nM
9 | Cc1cc(C(F)(F)F)cc(N2C(=O)C[C@@H]3CN(CCN4CCC(C#N)CC4)c4c(C)cccc4N(C)C(=O)[C@H]32)n1 [Example 69, 1-(2-((3aR,11aS)-6,10-Dimethyl-1-(6-methyl-4-(trifluoromethyl)pyridin-2-yl)-2,11-dioxo-1,2,3,3a,4,10,11,11a-octahydro-5H-benzo[b]pyrrolo[2,3-f][1,4]diazocin-5-yl)ethyl)piperidine-4-carbonitrile] | 1.12 nM
10 | Cc1cc(C(F)(F)F)cc(N2C(=O)C[C@@H]3CN(CCN4CC[C@H](C#N)C4)c4c(C)cccc4N(C)C(=O)[C@H]32)n1 [Example 70, (S)-1-(2-((3aR,11aS)-6,10-Dimethyl-1-(6-methyl-4-(trifluoromethyl)pyridin-2-yl)-2,11-dioxo-1,2,3,3a,4,10,11,11a-octahydro-5H-benzo[b]pyrrolo[2,3-f][1,4]diazocin-5-yl)ethyl)pyrrolidine-3-carbonitrile] | 0.692 nM
11 | Cc1cc(C(F)(F)F)cc(N2C(=O)C[C@@H]3CN(CCN4CC[C@@H](C#N)C4)c4c(C)cccc4N(C)C(=O)[C@H]32)n1 [Example 71, (R)-1-(2-((3aR,11aS)-6,10-Dimethyl-1-(6-methyl-4-(trifluoromethyl)pyridin-2-yl)-2,11-dioxo-1,2,3,3a,4,10,11,11a-octahydro-5H-benzo[b]pyrrolo[2,3-f][1,4]diazocin-5-yl)ethyl)pyrrolidine-3-carbonitrile] | 1.15 nM

The next lines start with the values.

Row | Ki | SMILES
12 | 0.891 nM | CC(=O)N1CCN(CCN2C[C@H]3CC(=O)N(c4cc(C(F)(F)F)cc(C)n4)[C@@H]3C(=O)N(C)c3cccc(C)c32)CC1 [Example 55, (3aR,11aS)-5-(2-(4-Acetylpiperazin-1-yl)ethyl)-6,10-dimethyl-1-(6-methyl-4-(trifluoromethyl)pyridin-2-yl)-1,3a,4,5,10,11a-hexahydro-2H-benzo[b]pyrrolo[2,3-f][1,4]diazocine-2,11(3H)-dione hydrochloride]
13 | 3.12 nM | Cc1cc(C(F)(F)F)cc(N2C(=O)C[C@@H]3CN(CCN4CC[C@@H](O)C4)c4c(C)cccc4N(C)C(=O)[C@H]32)n1 [Example 56, (3aR,11aS)-5-(2-((R)-3-Hydroxypyrrolidin-1-yl)ethyl)-6,10-dimethyl-1-(6-methyl-4-(trifluoromethyl)pyridin-2-yl)-1,3a,4,5,10,11a-hexahydro-2H-benzo[b]pyrrolo[2,3-f][1,4]diazocine-2,11(3H)-dione]
14 | 0.564 nM | Cc1cc(C(F)(F)F)cc(N2C(=O)C[C@@H]3CN(CCN4CCN[C@@H](C)C4)c4c(C)cccc4N(C)C(=O)[C@H]32)n1 [Example 57, (3aR,11aS)-6,10-Dimethyl-1-(6-methyl-4-(trifluoromethyl)pyridin-2-yl)-5-(2-((S)-3-methylpiperazin-1-yl)ethyl)-1,3a,4,5,10,11a-hexahydro-2H-benzo[b]pyrrolo[2,3-f][1,4]diazocine-2,11(3H)-dione dihydrochloride]
15 | 1.07 nM | Cc1cc(C(F)(F)F)cc(N2C(=O)C[C@@H]3CN(CCN4CCN(C)[C@@H](CO)C4)c4c(C)cccc4N(C)C(=O)[C@H]32)n1 [Example 63, (3aR,11aS)-5-(2-((R)-3-(Hydroxymethyl)-4-methylpiperazin-1-yl)ethyl)-6,10-dimethyl-1-(6-methyl-4-(trifluoromethyl)pyridin-2-yl)-1,3a,4,5,10,11a-hexahydro-2H-benzo[b]pyrrolo[2,3-f][1,4]diazocine-2,11(3H)-dione]
16 | 0.598 nM | Cc1cc(C(F)(F)F)cc(N2C(=O)C[C@@H]3CN(CCN4CCN(S(C)(=O)=O)CC4)c4c(C)cccc4N(C)C(=O)[C@H]32)n1 [Example 67, (3aR,11aS)-6,10-Dimethyl-1-(6-methyl-4-(trifluoromethyl)pyridin-2-yl)-5-(2-(4-(methylsulfonyl)piperazin-1-yl)ethyl)-1,3a,4,5,10,11a-hexahydro-2H-benzo[b]pyrrolo[2,3-f][1,4]diazocine-2,11(3H)-dione]
17 | 1.07 nM | Cc1cc(C(F)(F)F)cc(N2C(=O)C[C@@H]3CN(CCN4CCS(=O)(=O)CC4)c4c(C)cccc4N(C)C(=O)[C@H]32)n1 [Example 68, (3aR,11aS)-5-(2-(1,1-Dioxidothiomorpholino)ethyl)-6,10-dimethyl-1-(6-methyl-4-(trifluoromethyl)pyridin-2-yl)-1,3a,4,5,10,11a-hexahydro-2H-benzo[b]pyrrolo[2,3-f][1,4]diazocine-2,11(3H)-dione]
